Assay results reported in article PMC8550792, “Evolution of kinase polypharmacology across HSP90 drug discovery” (Cell Chemical Biology, 2021).

Legend:
Assay in all cases: biochemical
Type in all cases: biochemical
382 unique human kinases [1] = target: T1, 382 unique human kinases (Homo sapiens, UniProt P07333); conditions: FMS, [ATP] 100 µM, compound 10 uM; for remaining activity at 10 µM: read-out: % Enzyme Activity (relative to DMSO controls)
T1 construct: purchased Reaction Biology (HotSpot contract assay)

382 unique human kinases [2] = target: T2, 382 unique human kinases (Homo sapiens, UniProt Q9NQU5); conditions: PAK6, 10 uM; for remaining activity at 10 µM: read-out: % Enzyme Activity (relative to DMSO controls)
T2 construct: purchased Reaction Biology (HotSpot contract assay)

382 unique human kinases [3] = target: T3, 382 unique human kinases (Homo sapiens, UniProt Q5S007, R1441C); conditions: LRRK2 (R1441C), [ATP] 50 µM, compound 10 uM; for remaining activity at 10 µM: read-out: % Enzyme Activity (relative to DMSO controls)
T3 construct: purchased Reaction Biology (HotSpot contract assay)

382 unique human kinases [4] = target: T4, 382 unique human kinases (Homo sapiens, UniProt O60285); conditions: ARK5/NUAK1, 10 uM; for remaining activity at 10 µM: read-out: % Enzyme Activity (relative to DMSO controls)
T4 construct: purchased Reaction Biology (HotSpot contract assay)
T4 sequence (O60285 1-661): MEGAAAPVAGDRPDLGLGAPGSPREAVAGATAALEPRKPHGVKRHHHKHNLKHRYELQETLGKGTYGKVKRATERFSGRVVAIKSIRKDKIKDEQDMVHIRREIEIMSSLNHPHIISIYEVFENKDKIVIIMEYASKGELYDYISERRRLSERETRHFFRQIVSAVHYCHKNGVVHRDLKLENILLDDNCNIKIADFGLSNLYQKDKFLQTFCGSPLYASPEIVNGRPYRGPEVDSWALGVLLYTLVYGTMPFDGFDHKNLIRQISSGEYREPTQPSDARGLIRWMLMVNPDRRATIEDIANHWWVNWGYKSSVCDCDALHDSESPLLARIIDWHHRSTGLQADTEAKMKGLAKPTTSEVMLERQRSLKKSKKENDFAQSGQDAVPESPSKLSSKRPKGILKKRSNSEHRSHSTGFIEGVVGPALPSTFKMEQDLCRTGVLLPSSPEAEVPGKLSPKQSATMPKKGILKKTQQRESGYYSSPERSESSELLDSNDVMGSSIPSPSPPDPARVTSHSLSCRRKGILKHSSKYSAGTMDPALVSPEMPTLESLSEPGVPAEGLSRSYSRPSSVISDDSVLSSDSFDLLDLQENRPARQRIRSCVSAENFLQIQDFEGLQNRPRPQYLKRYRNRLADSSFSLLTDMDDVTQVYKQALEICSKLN

382 unique human kinases [5] = target: T5, 382 unique human kinases (Homo sapiens, UniProt P05771); conditions: PKCb1, 10 uM; for remaining activity at 10 µM: read-out: % Enzyme Activity (relative to DMSO controls)
T5 construct: purchased Reaction Biology (HotSpot contract assay)

382 unique human kinases [6] = target: T6, 382 unique human kinases (Homo sapiens, UniProt Q9Y2H1); conditions: STK38L/NDR2, compound at 10 uM, duplicate values; for remaining activity at 10 µM: read-out: % Enzyme Activity (relative to DMSO controls)
T6 construct: purchased Reaction Biology (HotSpot contract assay)

382 unique human kinases [7] = target: T7, 382 unique human kinases (Homo sapiens, UniProt Q02779); conditions: kinase MLK2/MAP3K10, compound 10 uM; for remaining activity at 10 µM: read-out: % Enzyme Activity (relative to DMSO controls)
T7 construct: purchased Reaction Biology (HotSpot contract assay)

382 unique human kinases [8] = target: T8, 382 unique human kinases (Homo sapiens, UniProt P23443); conditions: kinase p70S6K/RPS6KB1, compound 10 uM; for remaining activity at 10 µM: read-out: % Enzyme Activity (relative to DMSO controls)
T8 construct: purchased Reaction Biology (HotSpot contract assay)

382 unique human kinases [9] = target: T9, 382 unique human kinases (Homo sapiens, UniProt O75385); conditions: ULK1, 10 uM; for remaining activity at 10 µM: read-out: % Enzyme Activity (relative to DMSO controls)
T9 construct: purchased Reaction Biology (HotSpot contract assay)
T9 sequence (O75385 1-1050): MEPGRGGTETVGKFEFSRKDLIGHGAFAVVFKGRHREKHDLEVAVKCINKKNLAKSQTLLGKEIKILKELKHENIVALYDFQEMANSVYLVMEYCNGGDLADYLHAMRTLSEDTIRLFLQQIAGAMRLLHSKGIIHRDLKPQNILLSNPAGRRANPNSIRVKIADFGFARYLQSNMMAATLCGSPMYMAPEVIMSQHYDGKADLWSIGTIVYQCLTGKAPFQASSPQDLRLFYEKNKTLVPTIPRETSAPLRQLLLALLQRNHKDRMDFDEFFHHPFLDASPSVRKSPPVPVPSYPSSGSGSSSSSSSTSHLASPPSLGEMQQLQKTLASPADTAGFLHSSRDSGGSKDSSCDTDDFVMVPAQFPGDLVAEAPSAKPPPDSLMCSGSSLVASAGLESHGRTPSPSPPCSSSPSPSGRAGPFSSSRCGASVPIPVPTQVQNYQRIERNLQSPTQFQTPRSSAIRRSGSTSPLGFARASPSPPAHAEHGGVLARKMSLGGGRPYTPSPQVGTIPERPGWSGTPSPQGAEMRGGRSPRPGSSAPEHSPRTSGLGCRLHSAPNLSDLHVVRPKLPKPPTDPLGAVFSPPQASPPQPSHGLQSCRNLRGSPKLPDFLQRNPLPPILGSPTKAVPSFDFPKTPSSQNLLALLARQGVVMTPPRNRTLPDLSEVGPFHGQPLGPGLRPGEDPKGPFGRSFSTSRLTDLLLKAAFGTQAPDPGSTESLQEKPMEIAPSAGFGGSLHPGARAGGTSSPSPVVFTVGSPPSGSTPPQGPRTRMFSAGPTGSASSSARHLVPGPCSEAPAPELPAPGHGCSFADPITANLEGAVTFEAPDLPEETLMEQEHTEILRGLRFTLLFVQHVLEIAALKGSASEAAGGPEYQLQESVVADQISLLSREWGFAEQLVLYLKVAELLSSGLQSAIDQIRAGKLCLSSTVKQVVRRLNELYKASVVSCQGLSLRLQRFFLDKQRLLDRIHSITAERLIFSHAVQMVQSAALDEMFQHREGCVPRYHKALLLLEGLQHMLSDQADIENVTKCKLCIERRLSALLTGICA

382 unique human kinases [10] = target: T10, 382 unique human kinases (Homo sapiens, UniProt O00506); conditions: STK25/YSK1, compound at 10 uM, duplicate values; for remaining activity at 10 µM: read-out: % Enzyme Activity (relative to DMSO controls)
T10 construct: purchased Reaction Biology (HotSpot contract assay)

382 unique human kinases [11] = target: T11, 382 unique human kinases (Homo sapiens, UniProt P53778); conditions: P38g, compound at 10 uM, duplicate values; for remaining activity at 10 µM: read-out: % Enzyme Activity (relative to DMSO controls)
T11 construct: purchased Reaction Biology (HotSpot contract assay)
T11 sequence (P53778 1-367): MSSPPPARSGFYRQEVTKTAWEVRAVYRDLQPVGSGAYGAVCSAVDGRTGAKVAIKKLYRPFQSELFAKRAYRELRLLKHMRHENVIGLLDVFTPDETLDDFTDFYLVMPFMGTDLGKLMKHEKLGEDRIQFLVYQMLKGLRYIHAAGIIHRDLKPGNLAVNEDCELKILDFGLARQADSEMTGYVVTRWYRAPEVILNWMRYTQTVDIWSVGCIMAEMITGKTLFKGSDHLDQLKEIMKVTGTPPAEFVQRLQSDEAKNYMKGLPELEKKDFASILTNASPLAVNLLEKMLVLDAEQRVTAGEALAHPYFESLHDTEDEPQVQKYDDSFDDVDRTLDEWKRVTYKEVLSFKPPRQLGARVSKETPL

T10 sequence (O00506 whole entry): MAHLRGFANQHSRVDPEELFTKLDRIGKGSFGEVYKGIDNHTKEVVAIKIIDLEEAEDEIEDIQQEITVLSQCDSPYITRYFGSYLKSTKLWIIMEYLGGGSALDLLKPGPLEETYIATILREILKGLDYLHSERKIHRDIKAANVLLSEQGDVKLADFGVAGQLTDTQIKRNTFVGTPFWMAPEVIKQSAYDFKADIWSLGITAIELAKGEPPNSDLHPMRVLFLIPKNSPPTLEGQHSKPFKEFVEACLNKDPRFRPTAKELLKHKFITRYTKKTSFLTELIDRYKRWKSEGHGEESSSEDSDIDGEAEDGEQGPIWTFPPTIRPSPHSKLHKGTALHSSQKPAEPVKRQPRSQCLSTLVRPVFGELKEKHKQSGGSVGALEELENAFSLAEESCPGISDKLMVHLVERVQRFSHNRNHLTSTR
T7 sequence (Q02779 whole entry): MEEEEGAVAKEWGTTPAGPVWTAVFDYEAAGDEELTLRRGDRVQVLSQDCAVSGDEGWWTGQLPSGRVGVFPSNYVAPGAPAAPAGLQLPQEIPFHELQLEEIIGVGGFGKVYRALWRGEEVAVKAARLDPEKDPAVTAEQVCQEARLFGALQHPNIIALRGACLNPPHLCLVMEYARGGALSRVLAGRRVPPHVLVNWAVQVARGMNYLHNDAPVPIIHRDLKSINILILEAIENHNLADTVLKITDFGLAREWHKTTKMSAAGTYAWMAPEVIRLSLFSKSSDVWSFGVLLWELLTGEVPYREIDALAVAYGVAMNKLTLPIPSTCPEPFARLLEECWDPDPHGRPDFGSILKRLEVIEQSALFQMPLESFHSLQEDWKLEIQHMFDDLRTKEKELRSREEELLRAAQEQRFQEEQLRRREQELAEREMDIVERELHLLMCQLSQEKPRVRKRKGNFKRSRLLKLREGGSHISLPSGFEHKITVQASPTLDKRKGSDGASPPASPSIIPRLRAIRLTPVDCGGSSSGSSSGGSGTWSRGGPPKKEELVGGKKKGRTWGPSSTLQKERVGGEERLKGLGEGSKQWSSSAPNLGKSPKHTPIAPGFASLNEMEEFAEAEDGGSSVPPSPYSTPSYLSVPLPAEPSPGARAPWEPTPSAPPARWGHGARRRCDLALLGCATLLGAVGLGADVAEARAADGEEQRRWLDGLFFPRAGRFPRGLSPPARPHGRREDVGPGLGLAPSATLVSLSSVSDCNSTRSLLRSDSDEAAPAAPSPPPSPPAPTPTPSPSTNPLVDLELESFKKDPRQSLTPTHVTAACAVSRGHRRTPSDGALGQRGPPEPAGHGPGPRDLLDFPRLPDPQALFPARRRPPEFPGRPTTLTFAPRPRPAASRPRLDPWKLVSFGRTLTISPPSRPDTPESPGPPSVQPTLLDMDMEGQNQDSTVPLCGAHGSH
T1 sequence (P07333 20-972): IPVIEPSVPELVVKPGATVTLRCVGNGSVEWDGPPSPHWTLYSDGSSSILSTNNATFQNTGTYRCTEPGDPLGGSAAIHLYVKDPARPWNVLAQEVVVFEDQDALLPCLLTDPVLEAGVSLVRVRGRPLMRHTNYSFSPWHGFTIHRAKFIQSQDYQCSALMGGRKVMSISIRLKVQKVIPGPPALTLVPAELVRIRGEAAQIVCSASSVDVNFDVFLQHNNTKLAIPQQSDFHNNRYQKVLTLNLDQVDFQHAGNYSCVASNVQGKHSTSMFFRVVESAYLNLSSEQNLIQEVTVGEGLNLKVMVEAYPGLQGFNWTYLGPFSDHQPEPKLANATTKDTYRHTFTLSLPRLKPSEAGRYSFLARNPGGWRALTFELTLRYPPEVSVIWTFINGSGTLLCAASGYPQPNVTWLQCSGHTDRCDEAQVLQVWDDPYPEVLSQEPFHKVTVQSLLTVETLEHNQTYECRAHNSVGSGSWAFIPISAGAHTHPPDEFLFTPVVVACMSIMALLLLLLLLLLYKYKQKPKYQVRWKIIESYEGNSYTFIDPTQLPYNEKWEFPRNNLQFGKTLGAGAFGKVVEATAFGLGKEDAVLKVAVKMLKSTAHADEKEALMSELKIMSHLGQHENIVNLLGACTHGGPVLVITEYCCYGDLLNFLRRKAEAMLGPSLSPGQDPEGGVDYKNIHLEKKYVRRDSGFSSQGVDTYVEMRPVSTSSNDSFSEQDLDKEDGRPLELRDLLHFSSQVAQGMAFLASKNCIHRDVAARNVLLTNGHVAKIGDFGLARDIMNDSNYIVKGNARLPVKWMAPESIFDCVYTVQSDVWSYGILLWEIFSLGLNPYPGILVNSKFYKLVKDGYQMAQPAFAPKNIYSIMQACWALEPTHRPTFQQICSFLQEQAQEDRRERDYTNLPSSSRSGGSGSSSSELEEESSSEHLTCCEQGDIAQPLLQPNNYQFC
T5 sequence (P05771 whole entry): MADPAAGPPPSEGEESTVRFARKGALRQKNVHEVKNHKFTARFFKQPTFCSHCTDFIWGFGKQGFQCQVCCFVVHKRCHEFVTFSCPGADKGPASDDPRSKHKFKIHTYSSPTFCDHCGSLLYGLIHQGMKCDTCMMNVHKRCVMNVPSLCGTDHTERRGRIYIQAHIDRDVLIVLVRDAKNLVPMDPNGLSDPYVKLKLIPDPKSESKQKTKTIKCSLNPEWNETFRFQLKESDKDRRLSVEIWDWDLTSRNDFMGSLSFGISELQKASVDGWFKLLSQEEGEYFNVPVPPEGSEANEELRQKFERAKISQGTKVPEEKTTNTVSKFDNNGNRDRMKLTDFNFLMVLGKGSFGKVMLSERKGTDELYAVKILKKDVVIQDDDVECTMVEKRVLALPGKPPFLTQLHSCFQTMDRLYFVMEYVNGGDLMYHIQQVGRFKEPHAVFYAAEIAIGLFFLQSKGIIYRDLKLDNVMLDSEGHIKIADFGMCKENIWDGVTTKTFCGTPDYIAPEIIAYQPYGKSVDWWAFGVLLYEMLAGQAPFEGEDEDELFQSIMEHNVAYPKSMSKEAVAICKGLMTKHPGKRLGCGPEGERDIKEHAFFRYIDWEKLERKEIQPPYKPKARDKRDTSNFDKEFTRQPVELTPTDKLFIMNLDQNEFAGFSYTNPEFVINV
T2 sequence (Q9NQU5 whole entry): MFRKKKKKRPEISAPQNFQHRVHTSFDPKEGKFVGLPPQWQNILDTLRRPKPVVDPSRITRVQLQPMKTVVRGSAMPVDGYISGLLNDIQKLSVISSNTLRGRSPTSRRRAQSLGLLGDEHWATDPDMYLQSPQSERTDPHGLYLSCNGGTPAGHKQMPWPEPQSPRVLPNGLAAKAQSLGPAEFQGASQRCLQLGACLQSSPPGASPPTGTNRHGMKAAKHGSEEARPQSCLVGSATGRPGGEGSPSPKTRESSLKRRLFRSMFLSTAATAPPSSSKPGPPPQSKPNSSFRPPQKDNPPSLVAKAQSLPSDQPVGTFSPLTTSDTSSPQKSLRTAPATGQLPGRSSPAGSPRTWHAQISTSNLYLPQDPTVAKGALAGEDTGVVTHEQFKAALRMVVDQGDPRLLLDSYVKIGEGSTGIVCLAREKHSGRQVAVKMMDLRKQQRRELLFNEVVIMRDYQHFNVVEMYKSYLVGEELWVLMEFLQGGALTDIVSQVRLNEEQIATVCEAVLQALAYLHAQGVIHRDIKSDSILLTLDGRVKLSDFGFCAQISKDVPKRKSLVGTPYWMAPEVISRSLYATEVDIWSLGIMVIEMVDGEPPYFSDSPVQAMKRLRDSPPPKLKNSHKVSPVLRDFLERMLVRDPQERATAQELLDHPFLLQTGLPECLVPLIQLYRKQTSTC
T6 sequence (Q9Y2H1 whole entry): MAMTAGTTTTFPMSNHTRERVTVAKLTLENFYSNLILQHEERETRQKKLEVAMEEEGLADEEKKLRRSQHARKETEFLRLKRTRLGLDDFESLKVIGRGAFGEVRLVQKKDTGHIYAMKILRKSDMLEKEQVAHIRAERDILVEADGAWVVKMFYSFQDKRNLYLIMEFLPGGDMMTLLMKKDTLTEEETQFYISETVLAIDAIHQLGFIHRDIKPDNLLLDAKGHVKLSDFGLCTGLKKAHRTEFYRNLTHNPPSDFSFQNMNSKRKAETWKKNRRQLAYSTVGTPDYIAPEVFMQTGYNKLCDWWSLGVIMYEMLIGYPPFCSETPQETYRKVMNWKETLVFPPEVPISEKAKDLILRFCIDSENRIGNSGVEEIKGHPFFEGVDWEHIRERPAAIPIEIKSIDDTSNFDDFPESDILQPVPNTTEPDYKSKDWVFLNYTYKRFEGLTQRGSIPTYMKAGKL
T8 sequence (P23443 whole entry): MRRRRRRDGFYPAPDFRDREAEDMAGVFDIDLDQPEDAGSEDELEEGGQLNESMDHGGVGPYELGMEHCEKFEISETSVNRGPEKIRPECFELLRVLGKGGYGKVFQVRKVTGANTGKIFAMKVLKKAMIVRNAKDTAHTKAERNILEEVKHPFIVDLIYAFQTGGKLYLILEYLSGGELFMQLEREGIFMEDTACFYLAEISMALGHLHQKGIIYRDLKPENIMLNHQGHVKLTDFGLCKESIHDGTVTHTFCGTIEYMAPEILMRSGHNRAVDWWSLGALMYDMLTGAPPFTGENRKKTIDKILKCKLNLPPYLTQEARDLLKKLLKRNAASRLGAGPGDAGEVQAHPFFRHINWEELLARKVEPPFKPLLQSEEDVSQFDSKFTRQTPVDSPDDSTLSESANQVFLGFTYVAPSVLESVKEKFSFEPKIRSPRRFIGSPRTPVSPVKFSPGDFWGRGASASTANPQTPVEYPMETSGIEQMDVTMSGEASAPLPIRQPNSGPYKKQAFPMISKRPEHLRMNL

`CCNC(=O)c1noc(-c2cc(C(C)C)c(O)cc2O)c1-c1ccc(CN2CCOCC2)cc1` [Luminespib] was tested, and the “% Enzyme Activity (relative to DMSO controls)” value (382 unique human kinases [1]) was 26.15%, the remaining activity at 10 µM (382 unique human kinases [1]) was 26.4% and the “% Enzyme Activity (relative to DMSO controls)” value (382 unique human kinases [2]) was 95.70%. For the same compound, the remaining activity at 10 µM (382 unique human kinases [2]) was 97.2%, the “% Enzyme Activity (relative to DMSO controls)” value (382 unique human kinases [3]) was 88.51% and the remaining activity at 10 µM (382 unique human kinases [3]) was 88.8%. For the same compound, the “% Enzyme Activity (relative to DMSO controls)” value (382 unique human kinases [4]) was 92.57%, the remaining activity at 10 µM (382 unique human kinases [4]) was 93.9% and the “% Enzyme Activity (relative to DMSO controls)” value (382 unique human kinases [5]) was 93.07%. It also gave a remaining activity at 10 µM (382 unique human kinases [5]) of 93.8%.
`CC(C)c1cc(-c2n[nH]c(=O)n2-c2ccc3c(ccn3C)c2)c(O)cc1O` [Ganetespib (STA9090)] showed a remaining activity at 10 µM (382 unique human kinases [6]) of 105%, a remaining activity at 10 µM (382 unique human kinases [7]) of 98.6% and a remaining activity at 10 µM (382 unique human kinases [8]) of 91.3%. It also gave a remaining activity at 10 µM (382 unique human kinases [9]) of 73%, a remaining activity at 10 µM (382 unique human kinases [10]) of 107% and a remaining activity at 10 µM (382 unique human kinases [11]) of 119%.
In the case of `CCNC(=O)c1noc(-c2cc(C(C)C)c(O)cc2O)c1-c1ccc(CN2CCOCC2)cc1` [Luminespib (AUY-922)], the “% Enzyme Activity (relative to DMSO controls)” value (382 unique human kinases [6]) is reported as 105.09%, the remaining activity at 10 µM (382 unique human kinases [6]) is reported as 108% and the “% Enzyme Activity (relative to DMSO controls)” value (382 unique human kinases [7]) is reported as 89.74%. The remaining activity at 10 µM (382 unique human kinases [7]) was 91.1%, the “% Enzyme Activity (relative to DMSO controls)” value (382 unique human kinases [8]) was 107.14% and the remaining activity at 10 µM (382 unique human kinases [8]) was 107%. The “% Enzyme Activity (relative to DMSO controls)” value (382 unique human kinases [9]) was 102.69%, the remaining activity at 10 µM (382 unique human kinases [9]) was 104% and the “% Enzyme Activity (relative to DMSO controls)” value (382 unique human kinases [10]) was 107.24%. For the same compound, the remaining activity at 10 µM (382 unique human kinases [10]) was 110%, the “% Enzyme Activity (relative to DMSO controls)” value (382 unique human kinases [11]) was 104.66% and the remaining activity at 10 µM (382 unique human kinases [11]) was 106%.
In the case of `CC(C)c1cc(-c2n[nH]c(=O)n2-c2ccc3c(ccn3C)c2)c(O)cc1O` [Ganetespib], the remaining activity at 10 µM (382 unique human kinases [1]) is reported as 23.5%, the remaining activity at 10 µM (382 unique human kinases [2]) is reported as 106% and the remaining activity at 10 µM (382 unique human kinases [3]) is reported as 50.7%. It also gave a remaining activity at 10 µM (382 unique human kinases [4]) of 97.3% and a remaining activity at 10 µM (382 unique human kinases [5]) of 109%.
